According to patent US20170137458A1, “OXYSTEROLS FOR USE IN THE TREATMENT AND PREVENTION OF DISEASES CAUSED BY VIRUSES” (priority 2014, published 2017):
Where two headings read alike, the source gives them in different places.

Experiments:
[1] = test system: human papillomavirus; test: Antiviral assay with U18666A, papillomavirus, HeLa cells; assay type: cell-based; conditions: HeLa cells treated 20 hours
Method: (§1) According to the hypothesis formulated previously, the oxysterols determine an accumulation of the intracellular cholesterol at endosomal level, inhibiting entry of the rotavirus. […] U18666A is an amphipathic steroid, widely used to block the intracellular transport of cholesterol, with consequent accumulation of the same at the level of the endosome membranes (31). In short, antiviral assays were performed treating the MA104 cells (for the rotavirus) or HeLa cells (for the papillomavirus) for 20 hours with scalar concentrations of U18666A (0.07 to 50 μM) and then infecting for one hour with the respective viruses. The effect of the treatment on the infectivity of the two viral models was evaluated as described previously. […] The experiment described therefore constitutes solid proof of the principle of the mechanism of action proposed.

[2] = test system: human rotavirus; test: Antiviral assay with U18666A, rotavirus, MA104 cells; assay type: cell-based; conditions: MA104 cells treated 20 hours, 0.07 to 50 μM
Method: as §1

[3] = test system: human rotavirus (strain Wa); test: Rotavirus yield reduction assay; assay type: cell-based
Method: The cells were treated at 37° C. with 25-, 27-, 7α-, 7β-hydroxycholesterol or 7-ketocholesterol at 5.6 μM for 20 hours, then washed with medium and infected with the human rotavirus at an MOI of 0.02 (strain Wa) activated with trypsin. After one hour, the cells were washed and fresh medium was added supplemented with 0.5 μg/ml of porcine trypsin. […] The assay was performed in triplicate and the results were confirmed on Caco2 cells. In an alternative protocol, the MA104 cells were treated with oxysterols—at the concentration indicated above—after the viral inoculum. The one-way variance analysis (ANOVA), followed by the Bonferroni test, was used to evaluate the statistical significance of the virus titre differences between the treated and non-treated samples. The significance was fixed at 95%.
The results of the pre-treatment assays are illustrated in FIGS. 5 (MA104 cells) and 6 (Caco2 cells).

[4] = test system: TLR4; conditions: cited from earlier work
[5] = test system: PsV of HPV-16; test: microbe, parasite or virus in culture; assay type: cell-based, human papillomavirus
[6] = test system: TLR3; test: Quantitative real time RT-PCR of TLR-3 in Caco2 cells; assay type: cell-based, human; conditions: CaCo2 intestinal cells, 1.9 μM, 30 minutes to 6 hours
Method: The Caco2 cells were cultivated in DMEM medium containing 10% serum and seeded in 25 cm^2 flasks (8 million confluence cells). The next day the cells were treated, in DMEM medium containing 2% serum, with 1.9 μM 25OHC or 27OHC (dissolved in ethanol) for 30 minutes, 1, 2, 3, 4, 5 or 6 hours. Extraction of the total RNA was performed using the TRIzol Reagent (Applied Biosystems, Monza, Italy) and the quantity and purity (A260/A280 ratio) of the extracted RNA were spectrophotometrically measured. Subsequently, 2 μg of RNA were retrotranscribed using the High-Capacity cDNA Reverse Transcription Kit (Applied Biosystems). Quantitative RT-PCR was performed with 30 ng of cDNA using the “TaqMan Gene Expression Assay kits” for TLR-3 and β-actin, TaqMan Fast Universal PCR Master Mix, and 7500 Fast Real-Time PCR System (Applied Biosystems). For each gene considered, the threshold cycle (Ct) was determined and the results were normalized using β-actin as a reference gene. The relative quantification was performed using a mathematical method previously published (29). In FIGS. 1a-1b, the results are reported as increment of the genic expression (Fold change, Fc) of the treated samples with respect to the controls.

[7] = test system: human rotavirus WI61; test: Infectivity assay for rotavirus, MA104 cells, strain WI61
Method: (§2) The strains of human rotavirus Wa (ATCC® VR-2018), WI61 (ATCC® VR-2551), HRV 408 (ATCC® VR-2273), HRV 248 (ATCC® VR-2274) and DS-1 (ATCC® VR-2550) were acquired from the American Tissue Culture Collection (ATCC); the viruses were activated with 5 μg/ml porcine pancreatic trypsin of type IX (Sigma, St. Louis, Mo.) for 30 minutes at 37° C. and propagated in MA104 cells using MEM containing 0.5 μg of trypsin per ml as described previously (27).
(§3) The antiviral effectiveness of the oxysterols of the invention was determined by means of infectivity inhibition assay. The assays were performed with confluent monolayers of MA104 cells seeded in plates with 96 wells, as described previously (28). […] The control samples were prepared by treating the cells with culture medium with the addition of equal volumes of ethanol. The cells were then washed with medium, and the rotavirus infection was performed at a multiplicity of infection (MOI) of 0.02. After the infection, the cells were washed with medium and incubated at 37° C. in an incubator humidified at 5% (vol/vol) CO2-95% (vol/vol) of air. After 16 hours, the infected cells were fixed with a cold acetone-methanol mixture (50:50), and the virus titres were determined by means of indirect immunocytochemistry. The inhibition of the virus infectivity was expressed as a percentage comparing the mean number of infective events in the treated and non-treated samples±the standard deviations. Where possible, the values of the oxysterol concentrations able to determine 50% or 90% of the antiviral effect (EC50 and EC90 respectively) were calculated by means of regression analysis using the dose-response curves generated by the experimental data, with the use of PRISM 5.00 (GraphPad Software, San Diego, Calif., USA).

[8] = test system: human rhinovirus 1A; test: Infectivity assay with rhinovirus (plaque count, HeLa cells)
Method: The human rhinovirus 1A (ATCC® VR-1559) was acquired from ATCC. The virus was propagated in HeLa cells, at 33° C. with 5% of CO2. When the cytopathic effect (CPE) had fully developed, cells and supernatants were collected, frozen and thawed three times, clarified and divided into aliquots. The viruses were kept at −70° C. The rhinovirus titres were determined by means of the standard plaque assay. In short, the HeLa cells were seeded 2 days prior to the infection in plates with 96 wells, reaching 60%-70% confluence at the time of the infection. The viral suspension was serially diluted in DMEM supplemented with 2% fetal bovine serum and inoculated; the infected wells were incubated at 33° C. for 1 hour, allowing the viruses to adhere and enter the cells. The cells were subsequently washed with medium and covered with a 1:1 mixture of 1.6% SeaPlaque agarose (BioWhittaker Molecular Applications) and DMEM 2X [26.76 g DMEM (Gibco BRL), 20 ml of L-glutamine (Gibco BRL), 4.4 g of sodium bicarbonate (Sigma, St. Louis, Mo.), FBS 40 ml (Sigma, St. Louis, Mo.) and 1000 ml of water]. The plates were incubated at 33° C. for 3 days. At the end of the incubation, the plates were fixed with 7.5% formaldehyde (Fluka) and coloured with crystal violet (Sigma, St. Louis, Mo.). The number of plaques formed was then counted; the virus titres were expressed in terms of plaque-forming units per ml (PFU/ml).
The HeLa cells, kept in DMEM supplemented with 10% FBS and 1% Zell Shield, were seeded (at 8×10^4 cells/well) in plates with 24 wells. The medium was removed and the cells were infected with 200 microlitres/well containing approximately 30 PFU of a stock of human rhinovirus 1A. The infected cells were incubated at 33° C. for 1 h, allowing the virus to adhere and enter the cells. […] The plates were incubated at 33° C. for 5 days. After the incubation, the plates were fixed with formaldehyde at 7.5% (Fluka), coloured with crystal violet (Sigma, St. Louis, Mo.) and the number of plaques formed was counted. The oxysterol concentration values able to determine 50% or 90% of the antiviral effect (EC50 and EC90 respectively) were calculated by means of regression analysis using the dose-response curves generated by the experimental data, using PRISM 5.00 (GraphPad Software, San Diego, Calif., USA).

[9] = test system: human rhinovirus 1A; test: Rhinovirus yield reduction assay; conditions: HeLa cells, 5.6 μM after infection, collected 5 days after the infection
Method: Each well was inoculated with 200 μl of a stock of human rhinovirus 1A containing approximately 30 PFU per well and incubated for 1 hour. […] The infected cells and the supernatants were collected 5 days after the infection (when a complete CPE was visible), and titred by means of the standard plaque method, as described above.

[10] = test system: human rotavirus HRV 248; test: Infectivity assay for rotavirus, MA104 cells, strain HRV 248
Method: as §2, §3

[11] = test system: HPV PsV (protein L1); test: Assay for adhesion of the papillomavirus to the cell surface: Western blot analysis; assay type: cell-based, human papillomavirus; conditions: Hela cells treated 16 hours, PsV 4 hours at 4° C.
Description: L1 was detected using the murine monoclonal antibody (Ab30908, Abcam, Cambridge, UK) at a dilution of 1:2000, followed by secondary antibody IgG-HRP (Santa Cruz Biotechnology Inc.). The actin was detected using an anti-actin murine monoclonal antibody (MAB1501R, Millipore), followed by secondary antibody IgG-HRP (Santa Cruz Biotechnology Inc.).

[12] = test system: human rotavirus Wa; test: Infectivity assay for rotavirus repeated on Caco2 cells, strain Wa; assay type: cell-based; conditions: Caco-2
Description: The results of the antiviral assays performed treating with 25OHC and 27OHC were confirmed repeating the infectivity assays on Caco2 cells.

[13] = test system: human rotavirus Wa; test: Infectivity assay for rotavirus, MA104 cells, strain Wa
Method: as §2, §3

[14] = test system: rotavirus; test: Rotavirus cell entry kinetics; assay type: cell-based; conditions: MA104 cells; for entry of the rotavirus into the cells (infective events): 1.9 μM for 20 hours, MOI 0.02
Method: To measure the entry speed of the rotavirus into the cells, confluent monolayers of MA104 cells (cultivated in plates with 96 wells) were treated with 25OHC, 27OHC or 7κC at 1.9 μM at 37° C.; after 20 hours, the cells were washed extensively with cold medium and left to cool on ice. […] The non-bound viruses were then eliminated by washing, medium was added at 37° C., and the plates were incubated at 37° C. in a humidified atmosphere. At fixed times (i.e. 0, 15, 30, 45, 60, 75 and 90 minutes after the virus-cell adhesion), the medium was extracted from the wells and the viral particles still present on the surface of the cells were eliminated by means of two rapid washing operations with EGTA 3 mM in PBS, followed by incubation in warm medium. After reaching the last time point (90 minutes from the virus-cell adhesion), the plates with 96 wells were placed in an incubator (37° C., 5% CO2), and the infection was left to proceed for a further 16 hours. The cells were then fixed and coloured as described above. The quantity of viral particles that entered the cells at each time point was compared with the quantity of virus that entered when no washing with EGTA was performed (100% entry). The ANOVA, followed by the Bonferroni test, was used to evaluate the statistical significance of the differences between the treated and non-treated samples. The significance was fixed at the level of 95%.
As a control experiment, the same treatment and infection protocol was performed on MA104 cells, cultivated in a plate with 6 wells. In this experiment, after reaching the last time point of the entry measurement (90 minutes), the cells were lysed, the proteins extracted were denatured by boiling for 5 minutes, then separated by electrophoresis on sodium dodecylsulfate gel with 12% polyacrylamide (SDS-12%PAGE) and transferred to a polyvinylidene difluoride (PVDF) membrane. The protein of the intermediate capsid VP6 was detected using the murine monoclonal antibody 2B4 (mab0036-P, CovalAb) at a dilution 1:750, followed by secondary antibody IgG-HRP (Santa Cruz Biotechnology Inc.). The actin was detected using the anti-actin murine monoclonal antibody MAB1501R (Millipore), followed by antibody IgG-HRP (Santa Cruz Biotechnology Inc.). The density of the bands was compared using the ImageJ software, and the intensity of the actin bands was used to normalize the values. The ANOVA, followed by the Bonferroni test, was used to evaluate the statistical significance of the differences between the treated and the non-treated samples. The significance was fixed at the level of 95%. The results are reported in FIG. 11 and are expressed as a percentage, comparing treated cells with cells incubated with culture medium.

[15] = test system: human rotavirus DS-1; test: Infectivity assay for rotavirus, MA104 cells, strain DS-1
Method: as §2, §3

[16] = test system: human rotavirus; test: Target identification by siRNA sensitization (TISS), human rotavirus, Caco2 cells; conditions: oxysterol at its EC50
Method: This mechanism of action vis-à-vis the rotavirus was therefore investigated, performing a target identification assay by means of sensitization with short interfering RNA (siRNA). The Caco2 cells (for the experiments with human rotavirus) or the HeLa cells (for the experiments with human papillomavirus) were seeded in a plate with 24 wells; during seeding, the cells were transfected with siRNA specific for OSBP and VAPA (at a concentration of 20 nM). […] After one day, the medium was removed and the cells inoculated with the respective viruses in the same time, temperature and MOI conditions described in the protocols of the infectivity or neutralization assays. The number of infected cells was evaluated as described in the preceding paragraphs.

[17] = test system: human rotavirus HRV 408; test: Infectivity assay for rotavirus, MA104 cells, strain HRV 408
Method: as §2, §3

[18] = test system: LXR; conditions: cited from earlier work
[19] = MA104 cells, post-infection treatment 5.6 μM
[20] = MA104 cells, pre-treatment 5.6 μM for 20 hours, collected 48 hours after infection
[21] = Caco2 cells, pre-treatment 5.6 μM for 20 hours, collected 48 hours after infection
[22] = pre-treatment assay, 20 hours prior to the infection

In the case of `CCN(CC)CCO[C@H]1CC[C@@]2(C)C(=CC[C@@H]3[C@@H]2CC[C@]2(C)C(=O)CC[C@@H]32)C1` [U18666A], the EC50 [1] is reported as 1740 nM and the “inhibition of rotavirus infectivity” value [2] is reported as “antiviral activity is so high that calculation of the EC50 is not possible”.
In the case of `CC(C)CCC[C@@H](C)[C@H]1CC[C@H]2[C@@H]3[C@@H](O)C=C4C[C@@H](O)CC[C@]4(C)[C@H]3CC[C@]12C` [7βOHC, 7β-hydroxycholesterol], the “production of virus progenies” value [3, 19] is listed as “antiviral activity”, the “production of virus progenies” value [3, 20] is listed as “significant (P<0.05) antiviral activity” and the “induction of TLR4” value ([4]; SH-SY5Y neuroblastoma cells) is listed as “active in inducing TLR4”.
For `CC(C)CCC[C@@H](C)[C@H]1CC[C@H]2[C@@H]3[C@H](O)C=C4C[C@@H](O)CC[C@]4(C)[C@H]3CC[C@]12C` [7αOHC, 7alpha-hydroxycholesterol], the “production of virus progenies” value [3, 19] was “antiviral activity” and the “inhibition of the infectivity of HPV” value [5] was “not able to inhibit the infectivity of HPV”.
With `C[C@@H](CO)CCC[C@@H](C)[C@H]1CC[C@H]2[C@@H]3CC=C4C[C@@H](O)CC[C@]4(C)[C@H]3CC[C@]12C` [27OHC, 27-hydroxycholesterol] the TLR3 expression [6] was “marked hyperexpression of TLR3”, the EC50 [7] was 190 nM and the EC90 [7] was 740 nM. The “production of virus progenies” value [3, 21] was “significantly limit (p<0.05) the production of virus progenies”, the “production of virus progenies” value [3, 19] was “confirm the in vitro effectiveness” and the “production of virus progenies” value [3, 20] was “significantly limit (p<0.05) the production of virus progenies”. For the same compound, the EC50 ([8]; post-infection treatment assay) was 480 nM, the EC90 ([8]; post-infection treatment assay) was 1270 nM and the EC50 [8, 22] was 620 nM. For the same compound, the EC90 [8, 22] was 2170 nM, the “production of viral progenies” value [9] was “totally inhibit the production of viral progenies” and the EC50 ([5]; C33A cells, treated 16 hours before PsV, read-out: EC50) was 6870 nM. It also gave an EC50 ([5]; Human papillomavirus, HeLa) of 9330 nM, an EC50 ([5]; Human papillomavirus, SiHa) of 28900 nM and an EC50 [10] of 230 nM. The EC90 [10] was 3840 nM, the “adhesion of the PsV to the cell surface (L1 Western blot)” value [11] was “not able to inhibit adhesion of the PsV to the cell surface” and the EC50 [12] was 440 nM. The EC90 [12] was 2500 nM, the “induction of TLR4” value ([4]; SH-SY5Y neuroblastoma cells) was “active in inducing TLR4” and the “induction of TLR4” value ([4]; macrophage cell lines) was “active in inducing TLR4”. The EC50 [13] was 260 nM, the EC90 [13] was 1730 nM and the “entry of the rotavirus into the cells (infective events)” value [14] was “able to limit the entry of the viral particles into the cells, shows a lesser effectiveness”. For the same compound, the “viral antigen VP6 within the cells (Western blot)” value ([14]; 90 minutes after virus-cell adhesion) was “significantly (p<0.05) lower quantity than the non-treated control”, the EC50 [15] was 720 nM and the EC90 [15] was 5850 nM. For the same compound, the “antiviral activity in cells with OSBP silenced” value ([16]; OSBP siRNA 20 nM) was “higher”, the “antiviral activity in cells with VAP-A silenced” value ([16]; VAPA siRNA 20 nM) was “higher” and the EC50 [17] was 400 nM. The EC90 [17] was 4560 nM and the LXR ligand activity [18] was “optimal ligands of LXR”.
Work on `CC(C)C(O)CC[C@@H](C)[C@H]1CC[C@H]2[C@@H]3CC=C4C[C@@H](O)CC[C@]4(C)[C@H]3CC[C@]12C` (stereo partly shown) [24OHC, 24-hydroxycholesterol] yielded an EC50 [8, 22] of 770 nM, an EC90 [8, 22] of 3100 nM and an EC50 ([5]; Human papillomavirus, HeLa) of 4380 nM. It also gave an EC50 [13] of 390 nM and an EC90 [13] of 1600 nM.
For `CC(C)CCC[C@@H](C)[C@H]1CC[C@H]2[C@@H]3C(=O)C=C4C[C@@H](O)CC[C@]4(C)[C@H]3CC[C@]12C` [7κC, 7-ketocholesterol], the “production of virus progenies” value [3, 21] was “significantly limit (p<0.05) the production of virus progenies”, the “production of virus progenies” value [3, 19] was “antiviral activity” and the “production of virus progenies” value [3, 20] was “significantly limit (p<0.05) the production of virus progenies”. The “entry of the rotavirus into the cells (infective events)” value [14] was “does not cause a significant reduction (p>0.05) in the number of infective events” and the LXR ligand activity [18] was “no ligand activity”.
